Reference: patent publication US20230174584A1, “Antibiotic Compounds” (priority 2019, published 2023)
Converted amounts (≈) assume the structure as drawn.

Columns and labels:
Assay in all cases: MIC assay
E. faecium E0338 = type: cell-based, Enterococcus faecium; conditions: E. faecium E0338, VanA
E. faecalis E1246 = type: cell-based, Enterococcus faecalis
Procedure, shortened: (§1)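 Read-out: lowest concentration inhibiting growth, reported as the median MIC (μg/mL) over ≥ triplicates. Set-up: CLSI method, TSB with 0.002% polysorbate 80, 10^6 CFU/mL inoculum added in equal volume to 2-fold dilutions, 37 °C for 24 h with 600 rpm agitation.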

E. faecium E0013 = type: cell-based, Enterococcus faecium; conditions: E. faecium E0013, VanA
Procedure, shortened: as §1

E. faecium E1679 = type: cell-based, Enterococcus faecium; conditions: E. faecium E1679, VanA
Procedure, shortened: as §1

E. faecium E0506 = type: cell-based, Enterococcus faecium; conditions: E. faecium E0506, VanA
Procedure, shortened: as §1

E. faecium E2365 = type: cell-based, Enterococcus faecium; conditions: E. faecium E2365, VanB
Procedure, shortened: as §1

E. faecium E2373 = type: cell-based, Enterococcus faecium; conditions: E. faecium E2373, VanA
Procedure, shortened: as §1

E. faecium E7329 = type: cell-based, Enterococcus faecium; conditions: E. faecium E7329, VanA
Procedure, shortened: as §1

E. faecium E7424 = type: cell-based, Enterococcus faecium; conditions: E. faecium E7424, VanB
Procedure, shortened: as §1

E. faecium E7464 = type: cell-based, Enterococcus faecium; conditions: E. faecium E7464, VanB
Procedure, shortened: as §1

E. faecium EO321 = type: cell-based, Enterococcus faecium; conditions: E. faecium EO321, VanA
Procedure, shortened: as §1

E. faecium E8218 = type: cell-based, Enterococcus faecium; conditions: E. faecium E8218, VanB
Procedure, shortened: as §1

E. faecium E6016 = type: cell-based, Enterococcus faecium; conditions: E. faecium E6016, VanA
Procedure, shortened: as §1

E. faecium E8235 = type: cell-based, Enterococcus faecium; conditions: E. faecium E8235, VanB
Procedure, shortened: as §1

E. faecium E0745 = type: cell-based, Enterococcus faecium; conditions: E. faecium E0745, VanA
Procedure, shortened: as §1

E. faecium E0300 = type: cell-based, Enterococcus faecium; conditions: E. faecium E0300, VanA
Procedure, shortened: as §1

E. faecium E2297 = type: cell-based, Enterococcus faecium; conditions: E. faecium E2297, VanA
Procedure, shortened: as §1

E. faecium E7413 = type: cell-based, Enterococcus faecium; conditions: E. faecium E7413, VanA
Procedure, shortened: as §1

E. faecium E1130 = type: cell-based, Enterococcus faecium; conditions: E. faecium E1130, VanA
Procedure, shortened: as §1

E. faecium E7401 = type: cell-based, Enterococcus faecium; conditions: E. faecium E7401, VanB
Procedure, shortened: as §1

E. faecium E7403 = type: cell-based, Enterococcus faecium; conditions: E. faecium E7403, VanB
Procedure, shortened: as §1

[1] = E. faecalis E1246 VRE (VanA), Table 7
[2] = E. faecalis E1246 VRE (vanA), Table 9

| SMILES | MIC (E. faecium E0338) | MIC (E. faecalis E1246; [1]) | MIC (E. faecalis E1246; [2]) | MIC (E. faecium E0013) | MIC (E. faecium E1679) | MIC (E. faecium E0506) | MIC (E. faecium E2365) | MIC (E. faecium E2373) | MIC (E. faecium E7329) | MIC (E. faecium E7424) | MIC (E. faecium E7464) | MIC (E. faecium EO321) | MIC (E. faecium E8218) | MIC (E. faecium E6016) | MIC (E. faecium E8235) | MIC (E. faecium E0745) | MIC (E. faecium E0300) | MIC (E. faecium E2297) | MIC (E. faecium E7413) | MIC (E. faecium E1130) | other results |
| --- | --- | --- | --- | --- | --- | --- | --- | --- | --- | --- | --- | --- | --- | --- | --- | --- | --- | --- | --- | --- | --- |
| CCCCCCCNC(N)=Nc1ccc(CN[C@@]2(C)C[C@H](O[C@H]3[C@H](Oc4c5cc6cc4Oc4ccc(cc4Cl)[C@@H](O)[C@@H](NC(=O)[C@@H](CC(C)C)NC)C(=O)N[C@@H](CC(N)=O)C(=O)N[C@H]6C(=O)N[C@H]4C(=O)N[C@H](C(=O)N[C@H](C(=O)O)c6cc(O)cc(O)c6-c6cc4ccc6O)[C@H](O)c4ccc(c(Cl)c4)O5)O[C@H](CO)[C@@H](O)[C@@H]3O)O[C@@H](C)[C@H]2O)cc1 [Compound 5] | 4 µg/mL (≈ 2.36 µM) | 16 µg/mL (≈ 9.44 µM) | 16 µg/mL (≈ 9.44 µM) | 4 µg/mL (≈ 2.36 µM) | 16 µg/mL (≈ 9.44 µM) | 2 µg/mL (≈ 1.18 µM) | ≤8 ng/mL | 4 µg/mL (≈ 2.36 µM) | ≤8 ng/mL | ≤8 ng/mL | ≤8 ng/mL | 8 µg/mL (≈ 4.72 µM) | ≤8 ng/mL | 1 µg/mL (≈ 0.59 µM) | ≤8 ng/mL | 1 µg/mL (≈ 0.59 µM) | 4 µg/mL (≈ 2.36 µM) | 2 µg/mL (≈ 1.18 µM) | 8 µg/mL (≈ 4.72 µM) | ≤8 ng/mL | MIC (E. faecium E7401): ≤8 ng/mL; MIC (E. faecium E7403): ≤8 ng/mL |
| CN[C@H](CC(C)C)C(=O)N[C@H]1C(=O)N[C@@H](CC(N)=O)C(=O)N[C@H]2C(=O)N[C@H]3C(=O)N[C@H](C(=O)N[C@H](C(=O)O)c4cc(O)cc(O)c4-c4cc3ccc4O)[C@H](O)c3ccc(c(Cl)c3)Oc3cc2cc(c3O[C@@H]2O[C@H](CO)[C@@H](O)[C@H](O)[C@H]2O[C@H]2C[C@](C)(NCc3ccc(N=C(N)NC/C=C(\C)CCC=C(C)C)cc3)[C@H](O)[C@H](C)O2)Oc2ccc(cc2Cl)[C@H]1O [Compound 14] | 4 µg/mL (≈ 2.31 µM) | 8 µg/mL (≈ 4.62 µM) | 8 µg/mL (≈ 4.62 µM) | 2 µg/mL (≈ 1.15 µM) | 16 µg/mL (≈ 9.23 µM) | 2 µg/mL (≈ 1.15 µM) | ≤8 ng/mL | 4 µg/mL (≈ 2.31 µM) | ≤8 ng/mL | ≤8 ng/mL | ≤8 ng/mL | 8 µg/mL (≈ 4.62 µM) | ≤8 ng/mL | 2 µg/mL (≈ 1.15 µM) | ≤8 ng/mL | 1 µg/mL (≈ 0.577 µM) | 4 µg/mL (≈ 2.31 µM) | 2 µg/mL (≈ 1.15 µM) | 8 µg/mL (≈ 4.62 µM) | ≤8 ng/mL | MIC (E. faecium E7401): ≤8 ng/mL; MIC (E. faecium E7403): ≤8 ng/mL |
| CCCCCCCCCNC(N)=Nc1ccc(CN[C@@]2(C)C[C@H](O[C@H]3[C@H](Oc4c5cc6cc4Oc4ccc(cc4Cl)[C@@H](O)[C@@H](NC(=O)[C@@H](CC(C)C)NC)C(=O)N[C@@H](CC(N)=O)C(=O)N[C@H]6C(=O)N[C@H]4C(=O)N[C@H](C(=O)N[C@H](C(=O)O)c6cc(O)cc(O)c6-c6cc4ccc6O)[C@H](O)c4ccc(c(Cl)c4)O5)O[C@H](CO)[C@@H](O)[C@@H]3O)O[C@@H](C)[C@H]2O)cc1 [Compound 7] | 0.5 µg/mL (≈ 0.29 µM) | 2 µg/mL (≈ 1.16 µM) | 2 µg/mL (≈ 1.16 µM) | 0.5 µg/mL (≈ 0.29 µM) | 4 µg/mL (≈ 2.32 µM) | 0.5 µg/mL (≈ 0.29 µM) | ≤8 ng/mL | 0.5 µg/mL (≈ 0.29 µM) | ≤8 ng/mL | ≤8 ng/mL | ≤8 ng/mL | 1 µg/mL (≈ 0.58 µM) | ≤8 ng/mL | 0.25 µg/mL (≈ 0.145 µM) | ≤8 ng/mL | 0.125 µg/mL (≈ 0.0726 µM) | 0.5 µg/mL (≈ 0.29 µM) | 0.5 µg/mL (≈ 0.29 µM) | 2 µg/mL (≈ 1.16 µM) | ≤8 ng/mL | MIC (E. faecium E7401): ≤8 ng/mL; MIC (E. faecium E7403): ≤8 ng/mL |
